Data reported in article PMC11432087, “Hydrogen Sulfide-Releasing Carbonic Anhydrase Inhibitors Effectively Suppress Cancer Cell Growth” (International Journal of Molecular Sciences, 2024).
Where two headings read alike, the source gives them in different places.

Columns and labels:
hCA I = conditions: stopped-flow CO2 hydrase assay, mean of three assays; cited from earlier work
hCA II = conditions: stopped-flow CO2 hydrase assay, mean of three assays; cited from earlier work
hCA IV = conditions: stopped-flow CO2 hydrase assay, mean of three assays; cited from earlier work
hCA IX [1] = conditions: stopped-flow CO2 hydrase assay, mean of three assays; cited from earlier work
hCA XII [2] = conditions: stopped-flow CO2 hydrase assay, mean of three assays; cited from earlier work
hCA IX [3] = test: Stopped-flow CO2 hydrase inhibition assay, hCA IX; assay type: biochemical, human; conditions: ratio of KIs
Method: (§1) An Applied Photophysics stopped-flow instrument (Applied Photophysics Ltd, Leatherhead, UK) was used for assaying the CA-catalyzed CO2 hydration activity. Phenol red (at a concentration of 0.2 mM) was used as an indicator, working at the absorbance maximum of 557 nm, with 20 mM Hepes (pH 7.5) as a buffer and 20 mM Na2SO4 for maintaining constant the ionic strength, following the initial rates of the CA-catalyzed CO2 hydration reaction for a period of 10−100 s. The CO2 concentrations ranged from 1.7 to 17 mM for the determination of the kinetic parameters and inhibition constants. For each inhibitor, at least six traces of the initial 5−10% of the reaction were used for determining the initial velocity. The uncatalyzed rates were determined in the same manner and subtracted from the total observed rates. Stock solutions of inhibitor (0.1 mM) were prepared in distilled−deionized water and dilutions up to 0.01 nM were made thereafter with the assay buffer. Inhibitor and enzyme solutions were preincubated together for 15 min at room temperature before the assay to allow for the formation of the E−I complex. The inhibition constants were obtained by nonlinear least-squares methods using Prism 7 (GraphPad Software, La Jolla, CA, USA) and the Cheng−Prusoff equation and represent the mean of at least three different determinations. The enzyme concentrations were in the range of 3–11 nM. All hCA isoforms were recombinant ones obtained in-house.

hCA XII [4] = test: Stopped-flow CO2 hydrase inhibition assay, hCA XII; assay type: biochemical, human; conditions: ratio of KIs
Method: as §1

MDA-MB-231 = test: MTT antiproliferative assay, MDA-MB-231; assay type: cell-based; conditions: Homo sapiens, normoxic conditions, 72 h
Method: (§2) These cell lines were cultured as monolayers in Dulbecco’s Modified Eagle’s Medium (DMEM) supplemented with 10% FBS, 2 mM l-glutamine, 100 U/mL penicillin, and 100 µg/mL streptomycin sulfate. […] The cells were sub-cultured using trypsin/EDTA solution, counted with a hemocytometer, and plated on 96-well plates (5000 cells/well), allowing them to form a semi-confluent monolayer overnight. […] DMSO (100 µL/well) was then added to dissolve the formazan crystals with shaking for 10 min, after which the absorb absorbance was read at 590 nm against no-cell blanks using a FLuo Star Optima microplate reader (BMG technologies, Ortenberg, Germany). Cell proliferation was calculated by comparing the OD values of the DMSO control wells with those of the samples, represented as % proliferation relative to the control.

HCT-116 [5] = test: MTT antiproliferative assay, HCT-116 (normoxia and CoCl2-induced hypoxia); assay type: cell-based, human; conditions: HCT-116; for IC50: Homo sapiens, MTT, 72 h
Method: as §2

A549 [6] = test: MTT antiproliferative assay, A549; assay type: cell-based; conditions: Homo sapiens, normoxic conditions, 72 h
Method: The human triple-negative breast cancer cell line (MDA-MB-231), colon cancer cell line (HCT-116), and lung cancer cell line (A549) used in this study were obtained from the American Type Culture Collection (ATCC). These cell lines were cultured as monolayers in Dulbecco’s Modified Eagle’s Medium (DMEM) supplemented with 10% FBS, 2 mM l-glutamine, 100 U/mL penicillin, and 100 µg/mL streptomycin sulfate. […] The cells were sub-cultured using trypsin/EDTA solution, counted with a hemocytometer, and plated on 96-well plates (5000 cells/well), allowing them to form a semi-confluent monolayer overnight. […]. DMSO (100 µL/well) was then added to dissolve the formazan crystals with shaking for 10 min, after which the absorb absorbance was read at 590 nm against no-cell blanks using a FLuo Star Optima microplate reader (BMG technologies, Ortenberg, Germany). Cell proliferation was calculated by comparing the OD values of the DMSO control wells with those of the samples, represented as % proliferation relative to the control.

HCT-116 [7] = test: Cell cycle analysis by DNA flow cytometry, HCT-116; assay type: cell-based, human; conditions: HCT-116, 24 h at IC50 concentration
Method: (§3) Following treatment, cells were washed twice with ice-cold phosphate-buffered saline (PBS). Subsequently, the treated cells were harvested through centrifugation, fixed in ice-cold 70% (v/v) ethanol, washed with PBS, re-suspended in 100 μg/mL RNase, stained with 40 μg/mL propidium iodide (PI), and subjected to flow cytometry analysis using FACS Calibur (Becton Dickinson, Franklin Lakes, NJ, USA). The cell cycle distributions were calculated using CellQuest software 5.1 (Becton Dickinson).

A549 [8] = test: Cell cycle analysis by DNA flow cytometry, A549; assay type: cell-based, human; conditions: A549, 24 h at IC50 concentration
Method: as §3

HCT-116 [9] = test: Annexin V-FITC/PI dual staining apoptosis assay, HCT-116; assay type: cell-based, human; conditions: for Fold increase in overall apoptosis compared to untreated control: HCT-116; for Early Apoptosis (Lower Right %) / Late Apoptosis (Upper Right %) / Total apoptosis: HCT-116, treated at IC50 concentration
Method: (§4) Phosphatidylserine externalization was evaluated using the Annexin V-FITC/PI apoptosis detection kit (BD Biosciences, USA), following the manufacturer’s guidelines. […] Subsequently, the cells were re-suspended in 100 μL of binding buffer with the addition of 1 μL of FITC-Annexin V, followed by a 30-min incubation at 4 °C. After rinsing in binding buffer, the cells were resuspended in 150 μL of binding buffer with the addition of 1 μL of DAPI (1 μg/μL in PBS). Flow cytometry analysis was performed using the BD FACS Canto II flow cytometer and the results were interpreted with FlowJo7.6.4 software (Tree Star, Ashland, USA).

A549 [10] = test: Annexin V-FITC/PI dual staining apoptosis assay, A549; assay type: cell-based, human; conditions: for Fold increase in overall apoptosis compared to untreated control: A549; for Early Apoptosis (Lower Right %) / Late Apoptosis (Upper Right %) / Total apoptosis: A549, treated at IC50 concentration
Method: as §4

[11] = compound 150 µM, rat liver homogenate, 37 °C; cited from earlier work
[12] = chemically induced hypoxia with CoCl2·6H2O, read-out: IC50 HCT-116 (Hypoxia)
[13] = normoxic conditions, read-out: IC50 HCT-116 (Normoxia)

NS(=O)(=O)c1ccc(CCN(Cc2ccccc2)C(=O)c2ccc(-c3cssc3=S)cc2)cc1 [Compound 19]
Ki (hCA I): 771 nM | Ki (hCA II): 480 nM | Ki (hCA IV): 4340 nM | Ki (hCA IX [1]): 43 nM | Ki (hCA XII [2]): 9.7 nM

NS(=O)(=O)c1ccc(CCN(Cc2ccc(F)cc2)C(=O)c2ccc(-c3cssc3=S)cc2)cc1 [Compound 20]
Ki (hCA I): 5320 nM | Ki (hCA II): 600 nM | Ki (hCA IV): > 10000 nM | Ki (hCA IX [1]): 46.3 nM | Ki (hCA XII [2]): 65.3 nM

NS(=O)(=O)c1ccc(CCN(Cc2ccc(Cl)cc2)C(=O)c2ccc(-c3cssc3=S)cc2)cc1 [Compound 21]
Ki (hCA I): 5500 nM | Ki (hCA II): 2970 nM | Ki (hCA IV): 430 nM | Ki (hCA IX [1]): 24 nM | Ki (hCA XII [2]): 9.8 nM

N#Cc1ccc(CN(CCc2ccc(S(N)(=O)=O)cc2)C(=O)c2ccc(-c3cssc3=S)cc2)cc1 [Compound 23]
hCA II/hCA IX selectivity ratio (hCA IX [3]): 120 | hCA II/hCA XII selectivity ratio (hCA XII [4]): 548 | IC50 (MDA-MB-231): 1530 ± 40 nM | IC50 Normoxia / IC50 Hypoxia (HCT-116 [5]): 0.3 | IC50 (HCT-116 [5]; [12]): 4270 ± 80 nM | IC50 (HCT-116 [5]; [13]): 1240 ± 40 nM | IC50 (A549 [6]): 4530 ± 120 nM | %G0-G1 (HCT-116 [7]): 20.35% | %G2/M (HCT-116 [7]): 32.2% | %S (HCT-116 [7]): 23.29% | %Sub-G1 (HCT-116 [7]): 24.16% | %G0-G1 (A549 [8]): 29.65% | %G2/M (A549 [8]): 28.09% | %S (A549 [8]): 26.28% | %Sub-G1 (A549 [8]): 15.98% | Fold increase in overall apoptosis compared to untreated control (HCT-116 [9]): 37.2 fold | Early Apoptosis (Lower Right %) (HCT-116 [9]): 7.69% | Late Apoptosis (Upper Right %) (HCT-116 [9]): 21.33% | Total apoptosis (HCT-116 [9]): 29.02% | Fold increase in overall apoptosis compared to untreated control (A549 [10]): 14.2 fold | Early Apoptosis (Lower Right %) (A549 [10]): 6.91% | Late Apoptosis (Upper Right %) (A549 [10]): 10.13% | Total apoptosis (A549 [10]): 17.04% | Ki (hCA I): > 10000 nM | Ki (hCA II): 4830 nM | Ki (hCA IX [1]): 40.3 nM | Ki (hCA XII [2]): 8.8 nM

CN(C)c1ccc(CN(CCc2ccc(S(N)(=O)=O)cc2)C(=O)c2ccc(-c3cssc3=S)cc2)cc1 [Compound 24]
Ki (hCA I): 4260 nM | Ki (hCA II): 995 nM | Ki (hCA IV): 3410 nM | Ki (hCA IX [1]): 22.7 nM | Ki (hCA XII [2]): 9.5 nM

NS(=O)(=O)c1ccc(CCN(Cc2ccc([N+](=O)[O-])cc2)C(=O)c2ccc(-c3cssc3=S)cc2)cc1 [Compound 25]
Ki (hCA I): 7450 nM | Ki (hCA II): 919 nM | Ki (hCA IV): > 10000 nM | Ki (hCA IX [1]): 36.6 nM | Ki (hCA XII [2]): 32.9 nM

COc1cc([N+](=O)[O-])ccc1CN(CCc1ccc(S(N)(=O)=O)cc1)C(=O)c1ccc(-c2cssc2=S)cc1 [Compound 26]
hCA II/hCA IX selectivity ratio (hCA IX [3]): 719 | hCA II/hCA XII selectivity ratio (hCA XII [4]): 383 | IC50 (MDA-MB-231): 10400 ± 610 nM | IC50 Normoxia / IC50 Hypoxia (HCT-116 [5]): 0.6 | IC50 (HCT-116 [5]; [12]): 3730 ± 70 nM | IC50 (HCT-116 [5]; [13]): 2300 ± 72 nM | IC50 (A549 [6]): 7470 ± 310 nM | %G0-G1 (HCT-116 [7]): 27.14% | %G2/M (HCT-116 [7]): 30.29% | %S (HCT-116 [7]): 24.13% | %Sub-G1 (HCT-116 [7]): 18.44% | %G0-G1 (A549 [8]): 29.49% | %G2/M (A549 [8]): 33.05% | %S (A549 [8]): 22.54% | %Sub-G1 (A549 [8]): 14.92% | Fold increase in overall apoptosis compared to untreated control (HCT-116 [9]): 24.5 fold | Early Apoptosis (Lower Right %) (HCT-116 [9]): 4.13% | Late Apoptosis (Upper Right %) (HCT-116 [9]): 14.96% | Total apoptosis (HCT-116 [9]): 19.09% | Fold increase in overall apoptosis compared to untreated control (A549 [10]): 13.1 fold | Early Apoptosis (Lower Right %) (A549 [10]): 6.47% | Late Apoptosis (Upper Right %) (A549 [10]): 9.3% | Total apoptosis (A549 [10]): 15.77% | Ki (hCA I): 6700 nM | Ki (hCA II): 2950 nM | Ki (hCA IV): 4090 nM | Ki (hCA IX [1]): 4.1 nM | Ki (hCA XII [2]): 7.7 nM | H2S release half-life t/2 [11]: 4.9 min
